Converted amounts (≈) assume the structure as drawn.

For one test, the system named is Streptococcus pneumoniae. The test can be described thus: Antibacterial activity against Streptococcus pneumoniae MTCC 1936 by macrobroth dilution assay. The test is classed as functional. (In broth dilution the organism is exposed to a series of concentrations in liquid medium.)
The subject of a further test is Clostridium tetani. The test can be described thus: Antibacterial activity against Clostridium tetani MTCC 449 by macrobroth dilution assay. The test is classed as functional.
The test system of the next test is Bacillus subtilis. The test can be described thus: Antibacterial activity against Bacillus subtilis MTCC 441 by macrobroth dilution assay. It is filed as functional.
The next test concerns Salmonella typhi. The test can be described thus: Antibacterial activity against Salmonella typhi MTCC 98 by macrobroth dilution assay. The test is classed as functional, Salmonella enterica subsp. enterica serovar Typhi. The note with it: Salmonella enterica.
For the next test, the system named is Vibrio cholerae. The test can be described thus: Antibacterial activity against Vibrio cholerae MTCC 3906 by macrobroth dilution assay. The test is classed as functional.
For another test, the system named is Escherichia coli. The test is described as follows: Antibacterial activity against Escherichia coli MTCC 443 by macrobroth dilution assay. It is filed as functional.
The next test relates to Aspergillus fumigatus. The test is described as follows: Antifungal activity against Aspergillus fumigatus MTCC 3008 by macrobroth dilution assay. The test is classed as functional.
The test system of the next test is Candida albicans. The test can be described thus: Antifungal activity against Candida albicans MTCC 227 by macrobroth dilution assay. The test is classed as functional.
In test [1] the test system is Mycobacterium tuberculosis. The test is described as follows: Growth inhibition of Mycobacterium tuberculosis H37Rv at 250 ug/mL. The test is classed as functional. As to conditions: read-out: GI.
The test system of test [2] is Mycobacterium tuberculosis. The test can be described thus: Growth inhibition of Mycobacterium tuberculosis H37Rv at 0.2 ug/mL. It is filed as functional. The note with it: read-out: GI.
Test [3] has as its system Mycobacterium tuberculosis. The test is described as follows: Growth inhibition of Mycobacterium tuberculosis H37Rv at >[…]. It is filed as functional.

`CCN1[C@@H](C(=O)OC)C[C@@H]2COc3ccc(/N=N/c4ccccc4)cc3[C@@H]21`: the MIC (usually the lowest concentration found to suppress growth) in the test on Streptococcus pneumoniae is 200 µg/mL (≈ 547 µM); with Clostridium tetani, above 250 µg/mL; in the test on Bacillus subtilis, 200 µg/mL (≈ 547 µM); against Salmonella typhi, above 250 µg/mL; in the test with Vibrio cholerae it was above 250 µg/mL; against Escherichia coli it was 200 µg/mL (≈ 547 µM). Also, the MIC with Aspergillus fumigatus and in the test on Candida albicans was above 250 µg/mL each time. The inhibition of growth at 250 µg/mL in test [1] stood at 55%.
Turning to `CC1(C)S[C@@H]2[C@H](NC(=O)[C@H](N)c3ccccc3)C(=O)N2[C@H]1C(=O)O` [AMPICILLIN], the MIC in the test with Streptococcus pneumoniae amounted to 100 µg/mL (≈ 286 µM); with Clostridium tetani, 250 µg/mL (≈ 715 µM); in the test on Bacillus subtilis, 250 µg/mL (≈ 715 µM); in the test with Salmonella typhi, 100 µg/mL (≈ 286 µM); in the test with Vibrio cholerae, 100 µg/mL (≈ 286 µM); in the test on Escherichia coli it was 100 µg/mL (≈ 286 µM).
Turning to NYSTATIN, the minimal inhibitory concentration (MIC) in the test with Aspergillus fumigatus and in the test with Candida albicans was 100 µg/mL throughout.
`CCOC(=O)[C@H]1C[C@@H]2COc3ccc(/N=N/c4ccccc4)cc3[C@@H]2N1CC`: the minimum inhibitory concentration (MIC) is 100 µg/mL (≈ 264 µM) in the test on Streptococcus pneumoniae; 250 µg/mL (≈ 659 µM) against Clostridium tetani; above 250 µg/mL against Bacillus subtilis; 250 µg/mL (≈ 659 µM) against Salmonella typhi; 250 µg/mL (≈ 659 µM) against Vibrio cholerae; above 250 µg/mL in the test with Escherichia coli. For the same compound, the MIC was 250 µg/mL (≈ 659 µM) in the test with Aspergillus fumigatus and above 250 µg/mL in the test with Candida albicans. The inhibition of growth at 250 µg/mL in test [1] was determined as 98%.
In the case of `CCOC(=O)[C@H]1C[C@@H]2COc3ccc(/N=N/c4ccccc4)cc3[C@@H]2N1C`, the MIC was 250 µg/mL (≈ 684 µM) in the test with Streptococcus pneumoniae; 200 µg/mL (≈ 547 µM) in the test on Clostridium tetani; above 250 µg/mL against Bacillus subtilis; 50 µg/mL (≈ 137 µM) against Salmonella typhi; 125 µg/mL (≈ 342 µM) against Vibrio cholerae; 50 µg/mL (≈ 137 µM) in the test with Escherichia coli. The minimum inhibitory concentration (MIC) with Aspergillus fumigatus and with Candida albicans was above 250 µg/mL throughout. Besides, the inhibition of growth at 250 µg/mL in [1] turned out to be 64%.
With `NNC(=O)c1ccncc1` [ISONIAZID], the inhibition of growth at 0.2 µg/mL in [2] turned out to be 99%.
For `CCOC(=O)[C@H]1C[C@@H]2COc3ccc(/N=N/c4ccccc4)cc3[C@@H]2N1Cc1ccccc1`, the MIC was 250 µg/mL (≈ 566 µM) in the test on Streptococcus pneumoniae; 200 µg/mL (≈ 453 µM) against Clostridium tetani; 250 µg/mL (≈ 566 µM) against Bacillus subtilis; above 250 µg/mL in the test with Salmonella typhi; 200 µg/mL (≈ 453 µM) with Vibrio cholerae; above 250 µg/mL in the test on Escherichia coli. Moreover, the MIC in the test with Aspergillus fumigatus and in the test with Candida albicans was above 250 µg/mL throughout. Moreover, in test [1], the inhibition of growth at 250 µg/mL was found to be 20%.
Turning to `O=C(N[C@H](CO)[C@H](O)c1ccc([N+](=O)[O-])cc1)C(Cl)Cl` [CHLORAMPHENICOL], the minimal inhibitory concentration (MIC) in the test with Streptococcus pneumoniae, in the test with Clostridium tetani, against Bacillus subtilis, in the test with Salmonella typhi, against Vibrio cholerae and in the test on Escherichia coli was 50 µg/mL (≈ 155 µM) in each case.
`CCCCOC(=O)[C@H]1C[C@@H]2COc3ccc(/N=N/c4ccccc4)cc3[C@@H]2N1C`: the MIC with Streptococcus pneumoniae was 250 µg/mL (≈ 635 µM); against Clostridium tetani, 100 µg/mL (≈ 254 µM); in the test on Bacillus subtilis it was 50 µg/mL (≈ 127 µM); against Salmonella typhi, 250 µg/mL (≈ 635 µM); in the test with Vibrio cholerae, 200 µg/mL (≈ 508 µM); in the test with Escherichia coli, 250 µg/mL (≈ 635 µM). For the same compound, the MIC in the test on Aspergillus fumigatus and in the test with Candida albicans was above 250 µg/mL throughout. Moreover, the inhibition of growth at 250 µg/mL in test [1] was found to be 25%.
Consider `COC1=CC(=O)C[C@@H](C)[C@]12Oc1c(Cl)c(OC)cc(OC)c1C2=O` [GRISEOFULVIN], for which the MIC in the test with Aspergillus fumigatus stood at 100 µg/mL (≈ 283 µM); in the test on Candida albicans, 500 µg/mL (≈ 1420 µM).
`CCCCOC(=O)[C@H]1C[C@@H]2COc3ccc(/N=N/c4ccccc4)cc3[C@@H]2N1Cc1ccccc1`: the minimum inhibitory concentration (MIC) is 25 µg/mL (≈ 53.2 µM) in the test on Streptococcus pneumoniae; above 250 µg/mL against Clostridium tetani; 250 µg/mL (≈ 532 µM) against Bacillus subtilis; 100 µg/mL (≈ 213 µM) against Salmonella typhi; 250 µg/mL (≈ 532 µM) against Vibrio cholerae; 200 µg/mL (≈ 426 µM) in the test with Escherichia coli. Further, the MIC against Aspergillus fumigatus and with Candida albicans was above 250 µg/mL in each case. Moreover, in test [1], the inhibition of growth at 250 µg/mL was 90%.
For `COC(=O)[C@H]1C[C@@H]2COc3ccc(/N=N/c4ccccc4)cc3[C@@H]2N1Cc1ccccc1`, the minimal inhibitory concentration (MIC) against Streptococcus pneumoniae was 250 µg/mL (≈ 585 µM); in the test with Clostridium tetani, 200 µg/mL (≈ 468 µM); in the test on Bacillus subtilis, 250 µg/mL (≈ 585 µM); in the test with Salmonella typhi it was 250 µg/mL (≈ 585 µM); in the test on Vibrio cholerae, above 250 µg/mL; against Escherichia coli, 125 µg/mL (≈ 292 µM). In addition, the results for the minimal inhibitory concentration (MIC) in the test on Aspergillus fumigatus and with Candida albicans were above 250 µg/mL and 200 µg/mL (≈ 468 µM), respectively. In addition, the inhibition of growth at 250 µg/mL in test [1] is 87%.
Take `CCCOC(=O)[C@H]1C[C@@H]2COc3ccc(/N=N/c4ccccc4)cc3[C@@H]2N1Cc1ccccc1`: the MIC in the test on Streptococcus pneumoniae turned out to be 200 µg/mL (≈ 439 µM); in the test on Clostridium tetani it was 250 µg/mL (≈ 549 µM); against Bacillus subtilis it was 250 µg/mL (≈ 549 µM); against Salmonella typhi, 250 µg/mL (≈ 549 µM); against Vibrio cholerae, 100 µg/mL (≈ 220 µM); in the test on Escherichia coli it was 250 µg/mL (≈ 549 µM). The MIC against Aspergillus fumigatus was above 250 µg/mL; against Candida albicans it was 250 µg/mL (≈ 549 µM). Also, in [1], the inhibition of growth at 250 µg/mL is 84%.
On to `Cc1ncc([N+](=O)[O-])n1CCO` [METRONIDAZOLE], for which the “growth inhibition (GI)” value in [3] came to 99%.
Regarding `CCCCOC(=O)[C@H]1C[C@@H]2COc3ccc(/N=N/c4ccccc4)cc3[C@@H]2N1CC`, the minimal inhibitory concentration (MIC) in the test with Streptococcus pneumoniae was above 250 µg/mL; in the test on Clostridium tetani, 250 µg/mL (≈ 613 µM); against Bacillus subtilis, 100 µg/mL (≈ 245 µM); in the test on Salmonella typhi, 100 µg/mL (≈ 245 µM); in the test with Vibrio cholerae, above 250 µg/mL; in the test with Escherichia coli, 200 µg/mL (≈ 491 µM). For the same compound, the MIC against Aspergillus fumigatus was above 250 µg/mL; against Candida albicans, 200 µg/mL (≈ 491 µM). Besides, in test [1], the inhibition of growth at 250 µg/mL worked out at 68%.
Turning to `CCCOC(=O)[C@H]1C[C@@H]2COc3ccc(/N=N/c4ccccc4)cc3[C@@H]2N1C`, the MIC against Streptococcus pneumoniae was 250 µg/mL (≈ 659 µM); against Clostridium tetani it was above 250 µg/mL; against Bacillus subtilis, 250 µg/mL (≈ 659 µM); against Salmonella typhi it was 250 µg/mL (≈ 659 µM); in the test on Vibrio cholerae it was 250 µg/mL (≈ 659 µM); with Escherichia coli, 250 µg/mL (≈ 659 µM). In addition, the minimal inhibitory concentration (MIC) with Aspergillus fumigatus and with Candida albicans was above 250 µg/mL throughout. Also, in test [1], the inhibition of growth at 250 µg/mL came to 41%.
As for `CCCOC(=O)[C@H]1C[C@@H]2COc3ccc(/N=N/c4ccccc4)cc3[C@@H]2N1CC`, the minimum inhibitory concentration (MIC) in the test on Streptococcus pneumoniae is above 250 µg/mL; against Clostridium tetani, 200 µg/mL (≈ 508 µM); in the test on Bacillus subtilis, 200 µg/mL (≈ 508 µM); in the test with Salmonella typhi it was 100 µg/mL (≈ 254 µM); in the test with Vibrio cholerae it was 100 µg/mL (≈ 254 µM); against Escherichia coli it was 50 µg/mL (≈ 127 µM). Besides, the MIC in the test with Aspergillus fumigatus and against Candida albicans was above 250 µg/mL each time. Besides, the inhibition of growth at 250 µg/mL in test [1] came out at 95%.
As to `CCn1cc(C(=O)O)c(=O)c2cc(F)c(N3CCNCC3)cc21` [NORFLOXACIN], the MIC stood at 10 µg/mL (≈ 31.3 µM) in the test with Streptococcus pneumoniae; 50 µg/mL (≈ 157 µM) against Clostridium tetani; 100 µg/mL (≈ 313 µM) against Bacillus subtilis; 10 µg/mL (≈ 31.3 µM) in the test with Salmonella typhi; 10 µg/mL (≈ 31.3 µM) against Vibrio cholerae; 10 µg/mL (≈ 31.3 µM) in the test with Escherichia coli.
As for `O=C(O)c1cn(C2CC2)c2cc(N3CCNCC3)c(F)cc2c1=O` [CIPROFLOXACIN], the MIC with Streptococcus pneumoniae worked out at 50 µg/mL (≈ 151 µM); against Salmonella typhi, 25 µg/mL (≈ 75.4 µM); in the test on Vibrio cholerae, 25 µg/mL (≈ 75.4 µM); against Escherichia coli, 25 µg/mL (≈ 75.4 µM).
As to `COC(=O)[C@H]1C[C@@H]2COc3ccc(/N=N/c4ccccc4)cc3[C@@H]2N1C`, the MIC is 125 µg/mL (≈ 356 µM) in the test with Streptococcus pneumoniae; above 250 µg/mL in the test on Clostridium tetani; 125 µg/mL (≈ 356 µM) in the test on Bacillus subtilis; 200 µg/mL (≈ 569 µM) in the test on Salmonella typhi; 100 µg/mL (≈ 285 µM) with Vibrio cholerae; 200 µg/mL (≈ 569 µM) against Escherichia coli. The minimal inhibitory concentration (MIC) with Aspergillus fumigatus is above 250 µg/mL; in the test on Candida albicans, 250 µg/mL (≈ 711 µM). In test [1], the inhibition of growth at 250 µg/mL worked out at 72%.

(Values after ChEMBL document CHEMBL2029281, “An improved microwave assisted one-pot synthesis, and biological investigations of some novel aryldiazenyl chromeno fused pyrrolidines” (2012).)
